Data on 20 compounds can be found in patent US9061013B2, “Isoxazoline derivatives as antiparasitic agents” (Zoetis LLC, priority 2011, dated 2015).

Molecules are shown by their SMILES.

This assay has as its system Aedes aegypti. The assay is described as follows: Mosquito (Aedes aegypti) Larval Assay. Conditions: mosquito larvae in DMSO/water solution, death or paralysis following 24 hour incubation at 22° C., read-out: Minimum Efficacious Dose (MED). How it is done: Mosquito (Aedes aegypti) Larval Assay
Formula (1) compounds were dissolved in DMSO and water. Five instar mosquito larvae were added to the solution and observed for death or paralysis following a 24 hour incubation period at 22° C. Endpoint data was recorded as Minimum Efficacious Dose (MED) in μM.
Turning to `O=C(NCC(F)(F)F)C1CC(F)(c2ccc(C3=NOC(c4cc(Cl)c(Cl)c(Cl)c4)(C(F)(F)F)C3)cc2)C1` (centres unmarked) [Example 7, 3-fluoro-3-{4-[5-(3,4,5-trichloro-phenyl)-5-trifluoromethyl-4,5-dihydro-isoxazol-3-yl]-phenyl}-cyclobutanecarboxylic acid (2,2,2-trifluoro-ethyl)-amide], the minimal effective concentration is at most 100 µM. As to `CNC(=O)C1CC(O)(c2ccc(C3=NOC(c4cc(Cl)c(Cl)c(Cl)c4)(C(F)(F)F)C3)cc2)C1` (centres unmarked) [Example 3, 3-hydroxy-3-{4-[5-(3,4,5-trichloro-phenyl)-5-trifluoromethyl-4,5-dihydro-isoxazol-3-yl]-phenyl}-cyclobutanecarboxylic acid methylamide], the minimal effective concentration was at most 100 µM. Turning to `CN(C)C(=O)C1CN(c2ccc(C3=NOC(c4cc(Cl)c(Cl)c(Cl)c4)(C(F)(F)F)C3)cc2Cl)C1` (centres unmarked) [Example 23, 1-{2-chloro-4-[5-(3,4,5-trichloro-phenyl)-5-trifluoromethyl-4,5-dihydro-isoxazol-3-yl]-phenyl}-azetidine-3-carboxylic acid dimethylamide], the minimal effective concentration is at most 100 µM. To `CN(C)C(=O)C1CC(F)(c2ccc(C3=NOC(c4cc(Cl)c(Cl)c(Cl)c4)(C(F)(F)F)C3)cc2)C1` (centres unmarked) [Example 11, 3-fluoro-3-{4-[5-(3,4,5-trichloro-phenyl)-5-trifluoromethyl-4,5-dihydro-isoxazol-3-yl]-phenyl}-cyclobutanecarboxylic acid dimethylamide] belongs at most 100 µM; to `O=C(NCC(F)(F)F)C1CN(c2ccc(C3=NOC(c4cc(Cl)c(Cl)c(Cl)c4)(C(F)(F)F)C3)cc2)C1` (centres unmarked) [Example 18, 1-{4-[5-(3,4,5-trichloro-phenyl)-5-trifluoromethyl-4,5-dihydro-isoxazol-3-yl]-phenyl}-azetidine-3-carboxylic acid (2,2,2-trifluoro-ethyl)-amide], at most 100 µM.

As to `O=C(CNC(=O)C1CC(F)(c2ccc(C3=NOC(c4cc(Cl)c(Cl)c(Cl)c4)(C(F)(F)F)C3)cc2)C1)NCC(F)(F)F` (centres unmarked) [Example 15, 3-fluoro-N-(2-oxo-2-((2,2,2-trifluoroethyl)amino)ethyl)-3-(4-(5-(3,4,5-trichlorophenyl)-5-(trifluoromethyl)-4,5-dihydroisoxazol-3-yl)phenyl)cyclobutanecarboxamide], the minimal effective concentration is at most 100 µM.

Turning to `O=C(NC1CC(F)(c2ccc(C3=NOC(c4cc(Cl)c(Cl)c(Cl)c4)(C(F)(F)F)C3)cc2)C1)C1CC1` (centres unmarked) [Example 24, N-(3-fluoro-3-(4-(5-(3,4,5-trichlorophenyl)-5-(trifluoromethyl)-4,5-dihydroisoxazol-3-yl)phenyl)cyclobutyl)cyclopropanecarboxamide], the minimal effective concentration is at most 100 µM. The same measure for `CNC(=O)C1CN(c2ccc(C3=NOC(c4cc(Cl)c(Cl)c(Cl)c4)(C(F)(F)F)C3)cc2)C1` (centres unmarked) [Example 17, 1-{4-[5-(3,4,5-trichloro-phenyl)-5-trifluoromethyl-4,5-dihydro-isoxazol-3-yl]-phenyl}-azetidine-3-carboxylic acid methylamide]: at most 100 µM; for `CNC(=O)C1CC(F)(c2ccc(C3=NOC(c4cc(Cl)c(Cl)c(Cl)c4)(C(F)(F)F)C3)cc2)C1` (centres unmarked) [Example 10, 3-fluoro-3-{4-[5-(3,4,5-trichloro-phenyl)-5-trifluoromethyl-4,5-dihydro-isoxazol-3-yl]-phenyl}-cyclobutanecarboxylic acid methylamide]: at most 100 µM; for `O=C(NC1CC1)C1CN(c2ccc(C3=NOC(c4cc(Cl)c(Cl)c(Cl)c4)(C(F)(F)F)C3)cc2Cl)C1` (centres unmarked) [Example 22, 1-{2-chloro-4-[5-(3,4,5-trichloro-phenyl)-5-trifluoromethyl-4,5-dihydro-isoxazol-3-yl]-phenyl}-azetidine-3-carboxylic acid cyclopropylamide]: at most 100 µM. On to `CN(C)C(=O)C1CN(c2ccc(C3=NOC(c4cc(Cl)c(Cl)c(Cl)c4)(C(F)(F)F)C3)cc2)C1` (centres unmarked) [Example 19, 1-{4-[5-(3,4,5-trichloro-phenyl)-5-trifluoromethyl-4,5-dihydro-isoxazol-3-yl]-phenyl}azetidine-3-carboxylic acid dimethylamide], for which the minimal effective concentration is at most 100 µM.

`CC(C)NC(=O)C1CC(F)(c2ccc(C3=NOC(c4cc(Cl)c(Cl)c(Cl)c4)(C(F)(F)F)C3)cc2)C1` (centres unmarked) [Example 13]: the minimal effective concentration is at most 100 µM. For `CS(=O)(=O)CC(=O)NC1CC(F)(c2ccc(C3=NOC(c4cc(Cl)c(Cl)c(Cl)c4)(C(F)(F)F)C3)cc2)C1` (centres unmarked) [Example 25, N-(3-fluoro-3-(4-(5-(3,4,5-trichlorophenyl)-5-(trifluoromethyl)-4,5-dihydroisoxazol-3-yl)phenyl)cyclobutyl)-2-(methylsulfonyl)acetamide], the minimal effective concentration is at most 100 µM. Take `O=C(NCC(F)(F)F)C1CN(c2ccc(C3=NOC(c4cc(Cl)c(Cl)c(Cl)c4)(C(F)(F)F)C3)cc2Cl)C1` (centres unmarked) [Example 21, 1-{2-chloro-4-[5-(3,4,5-trichloro-phenyl)-5-trifluoromethyl-4,5-dihydro-isoxazol-3-yl]-phenyl}-azetidine-3-carboxylic acid (2,2,2-trifluoro-ethyl)-amide]: the minimal effective concentration is at most 100 µM.

Regarding `O=C(NC1CC1)C1CN(c2ccc(C3=NOC(c4cc(Cl)c(Cl)c(Cl)c4)(C(F)(F)F)C3)cc2)C1` (centres unmarked) [Example 16, 1-{4-[5-(3,4,5-trichloro-phenyl)-5-trifluoromethyl-4,5-dihydro-isoxazol-3-yl]-phenyl}-azetidine-3-carboxylic acid cyclopropylamide], the minimal effective concentration is at most 100 µM. To `CNC(=O)C1CN(c2ccc(C3=NOC(c4cc(Cl)c(Cl)c(Cl)c4)(C(F)(F)F)C3)cc2Cl)C1` (centres unmarked) [Example 20, 1-{2-chloro-4-[5-(3,4,5-trichloro-phenyl)-5-trifluoromethyl-4,5-dihydro-isoxazol-3-yl]-phenyl}-azetidine-3-carboxylic acid methylamide] belongs at most 100 µM; to `CCNC(=O)C1CC(F)(c2ccc(C3=NOC(c4cc(Cl)c(Cl)c(Cl)c4)(C(F)(F)F)C3)cc2)C1` (centres unmarked) [Example 14, 3-fluoro-3-{4-[5-(3,4,5-trichloro-phenyl)-5-trifluoromethyl-4,5-dihydro-isoxazol-3-yl]-phenyl}-cyclobutanecarboxylic acid ethylamide], at most 100 µM; to `O=C(NC1CC1)C1CC(O)(c2ccc(C3=NOC(c4cc(Cl)c(Cl)c(Cl)c4)(C(F)(F)F)C3)cc2)C1` (centres unmarked) [Example 2, 3-hydroxy-3-{4-[5-(3,4,5-trichloro-phenyl)-5-trifluoromethyl-4,5-dihydro-isoxazol-3-yl]-phenyl}-cyclobutanecarboxylic acid cyclopropylamide], at most 100 µM.

Consider `CN(C)C(=O)C1CC(O)(c2ccc(C3=NOC(c4cc(Cl)c(Cl)c(Cl)c4)(C(F)(F)F)C3)cc2)C1` (centres unmarked) [Example 4, 3-hydroxy-3-{4-[5-(3,4,5-trichloro-phenyl)-5-trifluoromethyl-4,5-dihydro-isoxazol-3-yl]-phenyl}-cyclobutanecarboxylic acid dimethylamide], for which the minimal effective concentration was at most 100 µM.

`O=C(NCC(F)(F)F)C1CC(O)(c2ccc(C3=NOC(c4cc(Cl)c(Cl)c(Cl)c4)(C(F)(F)F)C3)cc2)C1` (centres unmarked) [Example 1, 3-hydroxy-3-{4-[5-(3,4,5-trichloro-phenyl)-5-trifluoromethyl-4,5-dihydro-isoxazol-3-yl]-phenyl}-cyclobutanecarboxylic acid (2,2,2-trifluoro-ethyl)-amide]: the minimal effective concentration is at most 100 µM.
